Values after ≈ are worked out from the molar mass of the structure shown.

The conditions of the data set: buffer; pH 7.4; 200.0 µM.
Usually kinetic solubility stands for the concentration staying in solution when a stock, usually in DMSO, is diluted into the medium. On to `COc1ccc(C(=O)Nc2cc(C(=O)O)cc(C(=O)O)c2)cc1Cl`, for which the kinetic solubility is more than 52.5 µg/mL. Under `CC(C)CC(=O)N1CCN(Cc2ccc(C(F)(F)F)cc2)CC1` stands 47.2 µg/mL (≈ 144 µM); under `Cn1cc(CCC(=O)NCCCc2ccccc2)c2ccccc21`, 25.8 µg/mL (≈ 80.5 µM); under `COc1cccc(-c2cc(C(=O)NCc3ccco3)c3ccccc3n2)c1`, 11.6 µg/mL (≈ 32.4 µM). Under `CC(C)(C)C(=O)N/C(N)=N/c1nc2ccccc2o1` stands 8.1 µg/mL (≈ 31.1 µM).

In the case of `COc1ccc(Oc2ccc(C(F)(F)F)cc2N)cc1`, the kinetic solubility stood at 5.3 µg/mL (≈ 18.7 µM).

In the case of `CS(=O)(=O)c1ccc2nc(NC(=O)C3CC3)sc2c1`, the kinetic solubility turned out to be 25.3 µg/mL (≈ 85.4 µM).

As for `CCCn1c(=O)c2[nH]cnc2n(-c2ccc(Cl)cc2)c1=O`, the solubility (kinetic) amounted to 44.9 µg/mL (≈ 147 µM).

Compound `CN1CCCC(OC(=O)/C(C#N)=C/c2ccccc2)C1.Cl` (centres undefined) came in with a kinetic solubility of more than 46 µg/mL. On to `COc1ccc2cc(C(=O)N3CCN(c4cccc(C)c4C)CC3)[nH]c2c1`, for which the solubility (kinetic) amounted to 1.2 µg/mL (≈ 3.3 µM). For `O=C(Nc1nc2ccccc2n1CCN1CCOCC1)c1ccc(Cl)cc1`, the solubility (kinetic) came to 0.9 µg/mL (≈ 2.34 µM). As to `N#Cc1ccc(CN2C(=O)NC3(CCCCCC3)C2=O)cc1`, the solubility (kinetic) was determined as 25.7 µg/mL (≈ 86.4 µM). As for `Cc1ccc(NC(=O)Nc2ccc3c(c2)CCC3)c(C)c1`, the figure is less than 0.3 µg/mL; as for `CC(=O)OCC(=O)Nc1c(C)cccc1C`, more than 33.2 µg/mL; as for `O=C(NC1=NCCS1)c1cccc(F)c1`, more than 33.6 µg/mL.

Regarding `COc1ccc(C(=O)NC2CCN(C(=O)NCc3ccccc3)CC2)cc1`, the solubility (kinetic) came to 5.4 µg/mL (≈ 14.7 µM). Under `CC1CCCN(CC(=O)Nc2ccc(S(=O)(=O)N3CCCC3)cc2)C1` (centres undefined) stands more than 54.8 µg/mL. Under `O=C(O)c1cccc(N=C2NC(=O)C(CO)(CO)S2)c1` stands more than 44.4 µg/mL; under `COc1ccc(NCC(O)Cn2c(C)c(C)c3ccccc32)cc1` (centres undefined), 10.2 µg/mL (≈ 31.4 µM); under `S=C1NCN(C2CCCCC2)CN1CCc1ccccc1`, 16.1 µg/mL (≈ 53.1 µM). As for `Cc1ccc(NC(=O)c2ccc(COc3ccccc3)o2)nc1`, the figure is 16 µg/mL (≈ 51.9 µM). `CCCCN(CC)CCNC(=O)c1cc2c(=O)[nH]c3ccccc3c2n1C`: the kinetic solubility came to 43.9 µg/mL (≈ 119 µM).

As to `CC(C)CC1C2C(=O)N(c3ccccc3)C(=O)C2ON1c1ccccc1` (centres undefined), the solubility (kinetic) amounted to 27.7 µg/mL (≈ 79 µM). Under `CC(=O)NCCc1nc2ccccc2n1CCOc1ccccc1C` stands more than 50.6 µg/mL. As for `CC(CCN1CCN(c2ccc(F)cc2)CC1)c1ccccc1` (centres undefined), the figure is 19.6 µg/mL (≈ 62.7 µM); as for `OC1CCC(NC(=S)Nc2ccc(SC(F)F)cc2)CC1` (centres undefined), 43.8 µg/mL (≈ 132 µM); as for `O=C(Nc1cccc(F)c1)C1CCN(C(=O)NCc2ccccc2)CC1`, 9.2 µg/mL (≈ 25.9 µM). The compound `CCCCOC(=O)C1=C(C)NC(=O)NC1c1ccc(N(C)C)cc1` (centres undefined) yielded a solubility (kinetic) of 1.7 µg/mL (≈ 5.13 µM). Against the preceding compound, the solubility kinetic is about 5.4-fold lower. Take `O=C(NCc1ccc2c(c1)CCO2)Nc1ccccc1`: the kinetic solubility stood at 8.7 µg/mL (≈ 32.4 µM). For `Cc1ccc(NC(=S)N2CCC(c3ccccc3)C2)c(Cl)c1` (centres undefined), the solubility (kinetic) worked out at 7.1 µg/mL (≈ 21.5 µM).

`CN(Cc1ccc(F)cc1Cl)S(=O)(=O)c1cccs1`: the solubility (kinetic) stood at 6.8 µg/mL (≈ 21.3 µM). As for `CN(N)c1nc(N2CCCC2)nc(N2CCCC2)n1`, the figure is more than 39.5 µg/mL. Under `O=C(CCC(=O)NC1CCCCC1)NCc1ccc(F)cc1` stands more than 46 µg/mL; under `N=C1C(c2nc3ccccc3s2)=C(O)CN1C1CCC(O)CC1` (centres undefined), 5.1 µg/mL (≈ 15.5 µM). As for `CC1(C)Cc2cccc(C(=O)Nc3ccncc3)c2O1`, the figure is 34.8 µg/mL (≈ 130 µM); as for `O=C(NCCCNC(=O)c1cnccn1)c1ccc(Cl)cc1`, more than 47.8 µg/mL. Compound `Cc1sc2ncnc(N[C@@H](Cc3ccccc3)C(=O)O)c2c1C` returned a solubility (kinetic) of 46.8 µg/mL (≈ 143 µM). As for `NC(=O)c1cnn(-c2ccc3ccccc3c2)c1N`, the figure is more than 37.8 µg/mL. As for `CCOc1ncccc1C(=O)OCC(=O)Nc1ccc(Cl)cn1`, the figure is 15 µg/mL (≈ 44.7 µM); as for `COc1cccc(C(O)c2cnc(C(C)C)n2C)c1` (centres undefined), more than 39.1 µg/mL; as for `Cc1ccc(C(=O)NCCCN2CCOCC2)c(Cl)c1`, more than 44.5 µg/mL.

`S=c1[nH]cc(-c2ccc(Cl)cc2)n1Cc1ccccc1` showed a solubility (kinetic) of less than 0.3 µg/mL. Under `CN(C)S(=O)(=O)c1cc(C(=O)NCc2ccccc2)c(Cl)cc1Cl` stands 47.1 µg/mL (≈ 122 µM); under `CCNC(=O)COC(=O)c1cc(-c2ccccc2)nn1-c1ccccc1`, more than 52.4 µg/mL. Under `Cc1ccc(C)c(OCCCNCc2ccccc2)c1.O=C(O)C(=O)O` stands more than 53.9 µg/mL; under `O=C(COC(=O)COc1ccccc1F)Nc1ccc2c(c1)OCO2`, more than 52.1 µg/mL. Compound `CCc1ccc(C(=O)COC(=O)CNC(=O)Cc2ccccc2)cc1` registered a solubility (kinetic) of 36.6 µg/mL (≈ 108 µM). As for `CCOc1ccc2nc(NC(=O)CN3CCOCC3)sc2c1`, the figure is more than 48.2 µg/mL. As for `O=C(CN1C(=O)NC2(CCCCCC2)C1=O)c1ccccc1`, the figure is more than 45.1 µg/mL. Under `C=CCC(=O)N1CCCC(CCC(=O)NCc2ccccc2F)C1` (centres undefined) stands more than 49.9 µg/mL; under `Cc1[nH]c(=O)[nH]c(=O)c1N1CCOCC1`, more than 31.7 µg/mL. With `CC(C)c1ccc(NC(=O)Cn2c(=O)oc3ccccc32)cc1`, the solubility (kinetic) came out at 2.1 µg/mL (≈ 6.77 µM). Under `CC(=O)c1cccc(NC(=S)NC(=O)c2ccccc2C)c1` stands 1 µg/mL (≈ 3.2 µM). As for `Cc1ccc(S(=O)(=O)NCCc2nc3ccccc3[nH]2)cc1`, the figure is 36.3 µg/mL (≈ 115 µM); as for `CCNC(=S)N1CCN(Cc2ccc3c(c2)OCO3)CC1`, more than 46.1 µg/mL.

Regarding `Cc1cccc2c3c([nH]c12)C(=O)CC(C)(C)S3`, the kinetic solubility was less than 0.5 µg/mL. Turning to `O=C(Nc1nc2ccccc2s1)Nc1ccc(F)cc1F`, the solubility (kinetic) is less than 0.2 µg/mL. Under `COc1cc(C2NC(=O)NC(C)=C2C(C)=O)ccc1O` (centres undefined) stands more than 41.4 µg/mL. Under `COCN(C#N)c1nc(N(C)C)nc(N(C)C)n1` stands more than 37.7 µg/mL. As for `C=CCn1c(SCC(C)=O)nnc1-c1ccc2ncccc2c1`, the figure is more than 48.7 µg/mL; as for `Cc1ccc(C(=O)OCN2C(=O)c3ccccc3C2=O)c(O)c1`, less than 0.7 µg/mL; as for `CC(C)c1ccc(NC(=O)CN2C(=O)NC3(CCCCCCC3)C2=O)cc1`, 16.4 µg/mL (≈ 44.1 µM). Turning to `Cc1c(C(=O)OCC(=O)NC(C)c2ccccc2)oc2ccccc12` (centres undefined), the kinetic solubility stood at 4.4 µg/mL (≈ 13 µM).

In turn, `CC1(C)CC2=C(CO1)C(=S)NC(c1ccccc1)N2CC1CCCO1` (centres undefined) had a solubility (kinetic) of 45.3 µg/mL (≈ 126 µM). Compared with the last compound, the solubility kinetic is about 10-fold higher. As for `c1cnc2c(c1)ccc1cccnc12`, the figure is more than 27 µg/mL.

Compound `COc1ccc(C(=O)OCC(=O)NCC2CCCO2)c(F)c1` (centres undefined) displayed a kinetic solubility of more than 46.7 µg/mL. Under `CN(C)c1cccc(C(=O)NCCCn2ccc3ccccc32)c1` stands 23 µg/mL (≈ 71.6 µM); under `OCCCNc1c2ccccc2nc2ccccc12`, more than 37.8 µg/mL; under `Cc1nc(=O)c(-c2ccccc2)c(C)n1-c1ccccc1`, more than 41.5 µg/mL. Under `CCOC(=O)C1CCN(S(=O)(=O)c2c(C)noc2C)CC1` stands 26.8 µg/mL (≈ 84.7 µM); under `C/C(=N\NC(=O)c1ccncc1)c1cccs1`, more than 36.8 µg/mL; under `COc1ccc(OC)c(/C=C/C(=O)OCC(=O)N2CCCCC2)c1`, more than 50 µg/mL. Under `CCCCN(C(=O)c1c(C)noc1C)c1c(N)n(CCC)c(=O)[nH]c1=O` stands 18.6 µg/mL (≈ 51.2 µM); under `O=C(CCCc1c[nH]c2ccccc12)Nc1ncccc1O`, 35.9 µg/mL (≈ 122 µM); under `O=C(O)CC1(CC(=O)Nc2ccc(Cl)cc2C(=O)c2ccccc2)CCCC1`, more than 60 µg/mL. For the compound `Cc1cc(=O)[nH]c(Nc2cccc(Cl)c2C)n1`, the kinetic solubility was more than 37.5 µg/mL. As for `CC1=CC(C)(C)NC(=S)N1c1ccc(C)cc1C`, the figure is 2.1 µg/mL (≈ 8.06 µM); as for `Nc1nc2ccccc2n1CCOc1ccc(F)cc1`, more than 40.7 µg/mL. Under `O=C(Nc1ccc2ccccc2n1)c1ccccc1Cl` stands 1.1 µg/mL (≈ 3.89 µM); under `N#C/C(=C\c1cccs1)C(=O)Nc1ccccn1`, 12.8 µg/mL (≈ 50.1 µM); under `NCCNC[C@@H]1COC2(CCCCCCCCCCC2)O1`, 32.7 µg/mL (≈ 110 µM). The compound `CCOC(=O)c1sc(NC(=O)CSC(=S)N2CCN(C)CC2)nc1C` yielded a kinetic solubility of more than 60.4 µg/mL.

In turn, `Cc1ccccc1C(=O)NCC(=O)O` came in with a kinetic solubility of more than 29 µg/mL. `CC(C)NC(=O)CC1(C(=O)NCc2ccc(Cl)cc2)CCCC1`: the kinetic solubility is more than 50.5 µg/mL. As for `O=C(OCCCOC(=O)c1cc[n+]([O-])cc1)c1cc[n+]([O-])cc1`, the figure is more than 47.7 µg/mL; as for `CC(OC(=O)c1ccccc1Oc1ccccc1)C(=O)NC1CC1` (centres undefined), more than 48.8 µg/mL. Under `CC1CN(C(=O)COC(=O)c2ccc(N(C)C)cc2)CC(C)O1` (centres undefined) stands more than 48.1 µg/mL; under `C=CCNC(=O)[C@H]1N2C(=O)c3ccccc3C2SC1(C)C` (some centres undefined), more than 45.4 µg/mL. As for `CC1CCN(C(=O)CN(c2cccc(F)c2)S(C)(=O)=O)CC1`, the figure is more than 49.3 µg/mL; as for `CC(=O)c1ccc(NC2=NCCCS2)cc1`, more than 35.1 µg/mL; as for `COc1ccc(CCNS(=O)(=O)c2ccc(Cl)cc2)cc1OC`, more than 53.4 µg/mL. In the case of `CCOc1ccccc1CN1CCN(C2CCC2)CC1CCO` (centres undefined), the kinetic solubility was determined as 39.9 µg/mL (≈ 125 µM). Under `Cc1cc(NC(=O)CSc2ccc(F)cc2)no1` stands more than 39.9 µg/mL; under `CCC(=NCCc1ccc(OC)c(OC)c1)c1ccccc1O`, more than 47 µg/mL.

For `CC(OC(=O)c1cccnc1Cl)C(=O)Nc1ccc2c(c1)OCO2` (centres undefined), the solubility (kinetic) was more than 52.3 µg/mL. As for `CC(=O)Nc1ccc(OCC(=O)NC(C)c2ccc(F)cc2)cc1` (centres undefined), the figure is more than 49.6 µg/mL. Under `c1ccc(-c2ncc3ccccn23)cc1` stands 19.1 µg/mL (≈ 98.3 µM); under `COc1ccc(CNc2cc(C)nc3ccc(OC)cc23)cc1`, 37.8 µg/mL (≈ 123 µM); under `CS(=O)(=O)c1ccc(C(=O)N2CC(=O)Nc3ccccc32)cc1`, more than 49.6 µg/mL. As for `FC(F)(F)c1nc2cc3nc4ccccc4[nH]c3cc2n1`, the figure is 9.2 µg/mL (≈ 31.9 µM). As for `Cc1cc(C(=O)N2CCN(c3ccc([N+](=O)[O-])cc3)CC2)c(C)o1`, the kinetic solubility is 20.3 µg/mL (≈ 61.6 µM).

Take `Cc1ccccc1CSc1ccc(S(=O)(=O)N2CCCC2)cn1`: the solubility (kinetic) stood at 3.1 µg/mL (≈ 8.9 µM). Under `CCOc1cc2c(cc1OCC)C(c1ccc(F)cc1)NCC2` (centres undefined) stands more than 47.3 µg/mL; under `CC1CCCN(C(=O)COc2ccc(Nc3ccccc3)cc2)C1` (centres undefined), 6.2 µg/mL (≈ 19.1 µM).

The values above are taken from PubChem BioAssay AID1996.
